Measured values reported in PMC6273472, “Design, Synthesis and Biological Evaluation of 6-(2,6-Dichloro-3,5-dimethoxyphenyl)-4-substituted-1H-indazoles as Potent Fibroblast Growth Factor Receptor Inhibitors” (Molecules, 2016).
Several values for one entry are separate records, joined by “and”; a condition that tells them apart may be missing. Identical values can stand only once.

Columns and labels:
FGFR1 = FGFR1 (Homo sapiens, UniProt P11362); test: ELISA kinase assay (FGFR1 enzymatic assay); assay type: biochemical; details: for inhibition at 0.01 µM: 0.01 μmol/L compound; for inhibition at 0.01 µM / inhibition at 0.1 µM / inhibition at 1 µM: read-out: Enzyme Inhibition (%); for inhibition at 0.1 µM: 0.1 μmol/L compound; for IC50: mean ± SD, two separate experiments; for inhibition at 1 µM: 1 μmol/L compound
Protocol: The effects of compounds on the activities of FGFR1 kinases were determined using enzyme-linked immunosorbent assays (ELISAs) with purified recombinant proteins. Briefly, 20 μg/mL poly (Glu, Tyr)4:1 (Sigma, St. Louis, MO, USA) was pre-coated in 96-well plates as a substrate. A 50-μL aliquot of 10 μmol/L ATP solution diluted in kinase reaction buffer (50 mmol/L HEPES [pH 7.4], 50 mmol/L MgCl2, 0.5 mmol/L MnCl2, 0.2 mmol/L Na3VO4, and 1 mmol/L DTT) was added to each well; 1 μL of various concentrations of compounds diluted in 1% DMSO (v/v) (Sigma) were then added to each reaction well. DMSO (1%, v/v) was used as the negative control. The kinase reaction was initiated by the addition of purified tyrosine kinase proteins diluted in 49 μL of kinase reaction buffer. After incubation for 60 min at 37 °C, the plate was washed three times with phosphate-buffered saline (PBS) containing 0.1% Tween 20 (T-PBS). Anti-phosphotyrosine (PY99) antibody (100 μL; 1:500, diluted in 5 mg/mL BSA T-PBS) was then added. After a 30-min incubation at 37 °C, the plate was washed three times, and 100 μL horseradish peroxidase-conjugated goat anti-mouse IgG (1:2000, diluted in 5 mg/mL BSA T-PBS) was added. The plate was then incubated at 37 °C for 30 min and washed 3 times. A 100-μL aliquot of a solution containing 0.03% H2O2 and 2 mg/mL o-phenylenediamine in 0.1 mol/L citrate buffer (pH 5.5) was added. The reaction was terminated by the addition of 50 μL of 2 mol/L H2SO4 as the color changed, and the plate was analyzed using a multi-well spectrophotometer (SpectraMAX 190, Molecular Devices, Palo Alto, CA, USA) at 490 nm. […] The IC50 values were calculated from the inhibition curves in two separate experiments.

Sequence of FGFR1 (P11362 22-822): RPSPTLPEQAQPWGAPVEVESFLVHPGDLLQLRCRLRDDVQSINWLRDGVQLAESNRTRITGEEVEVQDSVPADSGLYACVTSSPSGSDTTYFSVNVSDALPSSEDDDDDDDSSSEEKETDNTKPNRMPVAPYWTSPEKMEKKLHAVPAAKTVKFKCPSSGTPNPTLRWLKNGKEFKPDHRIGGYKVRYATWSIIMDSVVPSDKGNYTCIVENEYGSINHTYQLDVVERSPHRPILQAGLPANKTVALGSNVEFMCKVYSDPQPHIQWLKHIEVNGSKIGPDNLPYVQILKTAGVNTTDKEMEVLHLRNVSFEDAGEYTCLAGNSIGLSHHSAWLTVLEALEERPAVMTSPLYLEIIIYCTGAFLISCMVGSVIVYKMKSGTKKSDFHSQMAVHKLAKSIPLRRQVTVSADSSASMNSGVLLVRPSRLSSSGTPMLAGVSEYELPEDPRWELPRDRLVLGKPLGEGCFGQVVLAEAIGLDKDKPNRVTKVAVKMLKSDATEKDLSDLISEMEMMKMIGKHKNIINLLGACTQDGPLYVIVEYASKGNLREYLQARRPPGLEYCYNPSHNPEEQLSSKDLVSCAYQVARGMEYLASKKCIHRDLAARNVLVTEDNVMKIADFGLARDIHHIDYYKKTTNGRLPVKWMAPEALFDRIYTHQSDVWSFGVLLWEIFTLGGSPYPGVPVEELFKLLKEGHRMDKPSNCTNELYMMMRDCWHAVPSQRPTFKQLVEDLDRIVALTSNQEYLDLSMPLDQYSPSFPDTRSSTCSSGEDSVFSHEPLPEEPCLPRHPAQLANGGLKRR

inhibition at 0.01 µM (FGFR1) [%] | inhibition at 0.1 µM (FGFR1) [%] | IC50 (FGFR1) | inhibition at 1 µM (FGFR1) [%] | melting point [°C] | SMILES
13.7 | 26.4 | 328 ± 65.7 nM |  |  | CCN1CCN(c2cccc(NC(=O)c3cc(-c4c(Cl)c(OC)cc(OC)c4Cl)cc4[nH]ncc34)c2)CC1 [Compound 13b, 6-(2,6-Dichloro-3,5-dimethoxyphenyl)-N-(3-(4-ethylpiperazin-1-yl)phenyl)-1H-indazole-4-carboxamide]
28.3 | 58.7 | 54 ± 8.7 nM |  | 159 to 161 | COc1cc(OC)c(Cl)c(-c2cc(C(=O)Nc3cccc(N4CCOCC4)c3)c3cn[nH]c3c2)c1Cl [Compound 12f, 6-(2,6-Dichloro-3,5-dimethoxyphenyl)-N-(3-morpholinophenyl)-1H-indazole-4-carboxamide]
34.5 | 52.7 | 102.9 ± 0.6 nM |  | 188 to 190 | COc1cc(OC)c(Cl)c(-c2cc(C(=O)Nc3cccc(-c4cnn(C)c4)c3)c3cn[nH]c3c2)c1Cl [Compound 12h, 6-(2,6-Dichloro-3,5-dimethoxyphenyl)-N-(3-(1-methyl-1H-pyrazol-4-yl)phenyl)-1H-indazole-4-carboxamide]
45.1 | 60.9 | 78.8 ± 14.2 nM |  | 221 to 223 | COc1cc(OC)c(Cl)c(-c2cc(C(=O)Nc3cccc(N4CCNCC4)c3)c3cn[nH]c3c2)c1Cl [Compound 12g, 6-(2,6-Dichloro-3,5-dimethoxyphenyl)-N-(3-(piperazin-1-yl)phenyl)-1H-indazole-4-carboxamide]
35.1 | 60.3 | 86.2 ± 17 nM |  | 177 to 179 | COc1cc(OC)c(Cl)c(-c2cc(C(=O)Nc3cccc(-c4cncnc4)c3)c3cn[nH]c3c2)c1Cl [Compound 12i, 6-(2,6-Dichloro-3,5-dimethoxyphenyl)-N-(3-(pyrimidin-5-yl)phenyl)-1H-indazole-4-carboxamide]
48.3 | 72.7 | ~30.2 nM and 30.2 nM |  | 205 to 207 | COc1cc(OC)c(Cl)c(-c2cc(C(=O)Nc3cccc(N4CCN(C)CC4)c3)c3cn[nH]c3c2)c1Cl [Compound 13a, 6-(2,6-Dichloro-3,5-dimethoxyphenyl)-N-(3-(4-methylpiperazin-1-yl)phenyl)-1H-indazole-4-carboxamide]
42.1 | 62.3 | 38.6 ± 0.2 nM |  | 155 to 157 | CNC(=O)c1cccc(NC(=O)c2cc(-c3c(Cl)c(OC)cc(OC)c3Cl)cc3[nH]ncc23)c1 [Compound 12b, 6-(2,6-Dichloro-3,5-dimethoxyphenyl)-N-(3-(methylcarbamoyl)phenyl)-1H-indazole-4-carboxamide]
17.2 | 36.7 |  |  |  | COc1cc(OC)c(Cl)c(-c2cc(C(=O)Nc3cccc(N4CCN(C)C4=O)c3)c3cn[nH]c3c2)c1Cl [Compound 12e, 6-(2,6-Dichloro-3,5-dimethoxyphenyl)-N-(3-(3-methyl-2-oxoimidazolidin-1-yl)phenyl)-1H-indazole-4-carboxamide]
35.7 | 41.3 | 464 ± 99.1 nM |  |  | C=CCN1CCN(c2cccc(NC(=O)c3cc(-c4c(Cl)c(OC)cc(OC)c4Cl)cc4[nH]ncc34)c2)CC1 [Compound 13c, N-(3-(4-Allylpiperazin-1-yl)phenyl)-6-(2,6-dichloro-3,5-dimethoxyphenyl)-1H-indazole-4-carboxamide]
9.9 | 36.8 |  |  |  | CCOC(=O)c1cccc(NC(=O)c2cc(-c3c(Cl)c(OC)cc(OC)c3Cl)cc3[nH]ncc23)c1 [Compound 12c, Ethyl 3-(6-(2,6-dichloro-3,5-dimethoxyphenyl)-1H-indazole-4-carboxamido)benzoate]
27.7 | 64.7 | 118 ± 3.9 nM |  | 209 to 211 | COc1cc(OC)c(Cl)c(-c2cc(C(=O)Nc3cccc(N4CCN(C(C)=O)CC4)c3)c3cn[nH]c3c2)c1Cl [Compound 13e, N-(3-(4-Acetylpiperazin-1-yl)phenyl)-6-(2,6-dichloro-3,5-dimethoxyphenyl)-1H-indazole-4-carboxamide]
17.1 | 35.7 |  |  |  | COC(=O)c1cccc(NC(=O)c2cc(-c3c(Cl)c(OC)cc(OC)c3Cl)cc3[nH]ncc23)c1 [Compound 12a, Methyl 3-(6-(2,6-dichloro-3,5-dimethoxyphenyl)-1H-indazole-4-carboxamido)benzoate]
7.2 | 18.5 |  |  |  | COc1cc(OC)c(Cl)c(-c2cc(C(=O)Nc3cccc(N4CCN(C(C)C)CC4)c3)c3cn[nH]c3c2)c1Cl [Compound 13d, 6-(2,6-Dichloro-3,5-dimethoxyphenyl)-N-(3-(4-isopropylpiperazin-1-yl)phenyl)-1H-indazole-4-carboxamide]
17.4 | 31.6 |  |  |  | COc1cc(OC)c(Cl)c(-c2cc(C(=O)Nc3cccc([N+](=O)[O-])c3)c3cn[nH]c3c2)c1Cl [Compound 12d, 6-(2,6-Dichloro-3,5-dimethoxyphenyl)-N-(3-nitrophenyl)-1H-indazole-4-carboxamide]

The next lines start with the compound.

SMILES | inhibition at 0.01 µM (FGFR1) [%] | inhibition at 0.1 µM (FGFR1) [%] | IC50 (FGFR1) | inhibition at 1 µM (FGFR1) [%] | melting point [°C]
COc1cc(NC(=O)c2cc(-c3c(Cl)c(OC)cc(OC)c3Cl)cc3[nH]ncc23)ccn1 [Compound 11b, 6-(2,6-Dichloro-3,5-dimethoxyphenyl)-N-(2-methoxypyridin-4-yl)-1H-indazole-4-carboxamide] |  | 49.5 |  | 84.3 | 
COc1cccc(NC(=O)c2cc(-c3c(Cl)c(OC)cc(OC)c3Cl)cc3[nH]ncc23)n1 [Compound 11a, 6-(2,6-Dichloro-3,5-dimethoxyphenyl)-N-(6-methoxypyridin-2-yl)-1H-indazole-4-carboxamide] |  | 47.2 |  | 79.2 | 
COc1cc(NC(=O)c2cc(-c3c(Cl)c(OC)cc(OC)c3Cl)cc3[nH]ncc23)ncn1 [Compound 11d, 6-(2,6-Dichloro-3,5-dimethoxyphenyl)-N-(6-methoxypyrimidin-4-yl)-1H-indazole-4-carboxamide] |  | 43.1 |  | 78.5 | 
COc1cc(OC)c(Cl)c(-c2cc(C(=O)Nc3ccccc3)c3cn[nH]c3c2)c1Cl [Compound 10a, 6-(2,6-Dichloro-3,5-dimethoxyphenyl)-N-phenyl-1H-indazole-4-carboxamide] | 27.3 | 58.8 | 69.1 ± 19.8 nM | 84.1 | 115 to 117
COc1cccc(NC(=O)c2cc(-c3c(Cl)c(OC)cc(OC)c3Cl)cc3[nH]ncc23)c1 [Compound 10d, 6-(2,6-Dichloro-3,5-dimethoxyphenyl)-N-(3-methoxyphenyl)-1H-indazole-4-carboxamide] |  | 57 |  | 78.4 | 
COc1cc(OC)c(Cl)c(-c2cc(C(=O)Nc3ccc(C(C)=O)cc3)c3cn[nH]c3c2)c1Cl [Compound 10c, N-(4-Acetylphenyl)-6-(2,6-dichloro-3,5-dimethoxyphenyl)-1H-indazole-4-carboxamide] |  | 32.2 |  | 52.9 | 
COc1cc(OC)c(Cl)c(-c2cc(C(=O)Nc3cccc(C(C)=O)c3)c3cn[nH]c3c2)c1Cl [Compound 10b, N-(3-Acetylphenyl)-6-(2,6-dichloro-3,5-dimethoxyphenyl)-1H-indazole-4-carboxamide] |  | 76.4 |  | 82.4 | 
COc1ccc(NC(=O)c2cc(-c3c(Cl)c(OC)cc(OC)c3Cl)cc3[nH]ncc23)cc1 [Compound 10e, 6-(2,6-Dichloro-3,5-dimethoxyphenyl)-N-(4-methoxyphenyl)-1H-indazole-4-carboxamide] |  | 11.9 |  | 68.5 | 
COc1ccnc(NC(=O)c2cc(-c3c(Cl)c(OC)cc(OC)c3Cl)cc3[nH]ncc23)c1 [Compound 11c, 6-(2,6-Dichloro-3,5-dimethoxyphenyl)-N-(4-methoxypyridin-2-yl)-1H-indazole-4-carboxamide] |  | 42.3 |  | 80 | 
COc1nccc(NC(=O)c2cc(-c3c(Cl)c(OC)cc(OC)c3Cl)cc3[nH]ncc23)n1 [Compound 11e, 6-(2,6-Dichloro-3,5-dimethoxyphenyl)-N-(2-methoxypyrimidin-4-yl)-1H-indazole-4-carboxamide] |  | 31 |  | 57.4 | 
